Laboratory results reported in US20220257764A1, “USE OF DIKETONE COMPOUND IN PHOTODYNAMIC THERAPY OR DIAGNOSIS” (BEIJING WHOLESOMETECH CO., LTD., priority 2019, published 2022).

Assays:
SW480 colon cancer cells = assay: MTT toxicity to tumor cells, under light and in the dark; assay type: cell-based; conditions: Homo sapiens, SW480; under light, 450-480 nm laser, 110 mW/cm^2, 900 s
Experimental: (§1) In this experimental example, the toxicity of the compound to tumor cells was tested by an MTT method including the following specific steps.
(§2) (1) Logarithmic cells were collected, the concentration of a cell suspension was adjusted, the cell suspension was added to a cell culture plate in a dose of 100 μL per well, and the cells were then added to a cell culture plate so that the density of the cells to be tested was adjusted to 1000-10000 wells (edge wells were filled with sterile PBS).
(§3) (2) The cells were incubated at 37° C. in the presence of 5% CO2 until the cells in a single layer covered the bottom of each well (96-well flat-bottom plate), and a drug in concentration gradients was added. Generally, the drug in 5 to 7 gradients was added in a dose of 100 μL per well, and 3 to 5 multi-wells were set.
(§4) (3) The cells were randomly divided into treated groups under light and treated groups in the dark, incubated at 37° C. in the presence of 5% CO2 for 16 h to 48 h, and observed with an inverted microscope.
(§5) (4) The cells were irradiated for 900 s with a laser having a wavelength of 450 nm to 480 nm (at an intensity of 110 mW/cm^2), and the final light dose was about 100 J/cm^2. After light irradiation, the cells were washed with PBS.
(§6) (5) An MTT solution (5 mg/ml, 0.5% MTT) was added in a dose of 20 μL per well to further incubate the cells for 4 h. If the drug could react with the MTT, centrifuging was carried out first, and then the culture solution was discarded and the cells were carefully washed twice or three times with PBS, and then the culture solution containing MTT was added.
(§7) (6) The culture was terminated and the culture solution in the wells was carefully removed.
(§8) (7) Dimethyl sulfoxide was added in a dose of 150 μL per well, and the plate was then shaken on a shaker at a low speed for 10 min to fully dissolve crystals. The absorbance at OD 490 nm of each well was measured with enzyme-linked immunoassay.
(§9) (8) Zero adjustment wells (medium, MTT, dimethyl sulfoxide) and control wells (cells, dissolving media of the same concentration, culture solution, MTT, dimethyl sulfoxide) were set at the same time.

B16 melanoma cell = assay: as above; assay type: cell-based; conditions: Mus musculus, under light, 450-480 nm laser, 110 mW/cm^2, 900 s
Experimental: as §1, §2, §3, §4, §5, §6, §7, §8, §9

Hela cells = assay: as above; assay type: cell-based; conditions: Homo sapiens, under light, 450-480 nm laser, 110 mW/cm^2, 900 s
Experimental: as §1, §2, §3, §4, §5, §6, §7, §8, §9

[1] = test system: human immortalized keratinocyte (Hacat cells); assay: MTT cytotoxicity to normal cells, Experimental Example 5; assay type: cell-based
Experimental: (1) Logarithmic phase cells were collected, the concentration of a cell suspension was adjusted, the cell suspension was added to a cell culture plate in a dose of 100 μL per well, and the cells were then added to a cell culture plate so that the density of the cells to be tested was adjusted to 1000-10000 wells (edge wells were filled with sterile PBS). […] Generally, the drug in 5 to 7 gradients was added in a dose of 100 μL per well, and 3 to 5 wells were set for each concentration of a drug. […] Cells in the experimental photosensitizer-light irradiation group were incubated for 15 min and then irradiated with light. […] After light irradiation, the cells were washed with PBS. […] After light irradiation, the cells were washed with PBS. […] If the drug could react with the MTT, centrifuging was carried out first, and then the culture solution was discarded and the cells were carefully washed twice or three times with PBS, and then the culture solution containing MTT was added. (6) The culture was terminated and the culture solution in the wells was carefully removed. (7) Dimethyl sulfoxide was added in a dose of 150 μL per well, and the plate was then shaken on a shaker at a low speed for 10 min to fully dissolve crystals. The absorbance at OD 490 nm of each well was measured with enzyme-linked immunoassay. […]

[2] = Blood routine and blood biochemical indicators of tumor-bearing mice after 2 weeks of treatment; assay type: in vivo, BALB/C mice; set-up: Mean corpuscular hemoglobin (MCH) / Mean corpuscular volume (MCV) / Red blood cell volume distribution width (RDW) / Hematocrit (HCT) / Hemoglobin (HGB): unit not given here; conditions: for Hematocrit (HCT) / Hemoglobin (HGB) / Mean corpuscular hemoglobin (MCH) / Mean corpuscular hemoglobin concentration (MCHC) / Mean corpuscular volume (MCV) / Mean platelet volume (MPV) / Platelet count (PLT) / Platelet distribution width (PDW) / Plateletocrit (PCT) / Red blood cell volume distribution width (RDW) / Red blood count (RBC) / White blood cell count (WBC): after 2 weeks
Experimental: 1. Photodynamic therapy experiments on tumors were carried out by using BJMU-204 as a photosensitizer and BALB/C mice as experimental animals.
Modeling mode: BALB/C mice were divided into 5 groups in total, 11-12 mice in each group. 4T1 cells (breast cancer cells in mice) were resuscitated and subcultured to a better cell state for tumorigenesis inoculation. BALB/C mice were locally depilated and disinfected, and tumor cells were injected into the mouse mammary fat pad in situ. Tumors were formed within 7 to 10 days.
Administration time: drug intervention was given to mice after tumor formation, and photodynamic therapy was given by intratumoral injection every other day under the irradiation of laser with a wavelength of 450 nm to 480 nm at a light intensity of 200 mW/cm^2.
Administration mode: as shown in the table below, the photosensitizer was dissolved in physiological saline and injected in mice in groups 1-3 intratumorally, and the groups receiving photodynamic therapy were irradiated with light immediately after the injection.
2. Mice in each experimental group were subjected to blood collection for serum separation and necropsy, and tumors were taken out and measured to obtain their wet weights; tumor tissues were fixed, pathological examinations were performed, and H. E. staining was used to observe the changes of tumors of the mice under an optical microscope; blood routine indicators (including white blood cell count (WBC), red blood cell count (RBC), lymphocyte count (LY), platelet count (PLT) and many other blood routine indicators) and blood biochemical indicators (including routine blood biochemical indicators) were tested and analyzed in the Laboratory of Peking University Third Hospital.

[3] = Control group-1: intratumoral injection 3%, no light
[4] = High-concentration (3%) intratumoral injection + light 10 min
[5] = Low-concentration (0.5%) intratumoral injection + light 10 min

CC(=O)C(C)=O [BJMU-204]
IC50 (SW480 colon cancer cells): 600 ± 50 nM
IC50 (B16 melanoma cell): 500 ± 30 nM
IC50 (Hela cells): 600 ± 20 nM
cytotoxicity to Hacat cells [1]: relatively low cytotoxicity
Hematocrit (HCT) [2, 3]: 28.8 ± 5.76
Hemoglobin (HGB) [2, 3]: 117 ± 26.64
Mean corpuscular hemoglobin (MCH) [2, 3]: 18.43 ± 0.67
Mean corpuscular hemoglobin concentration (MCHC) [2, 3]: 404.5 ± 26.01
Mean corpuscular volume (MCV) [2, 3]: 45.65 ± 1.35
Mean platelet volume (MPV) [2, 3]: 6.1 ± 0
Platelet count (PLT) [2, 3]: 312 ± 125.04
Platelet distribution width (PDW) [2, 3]: 16.2 ± 0
Plateletocrit (PCT) [2, 3]: 0.24 ± 0
Red blood cell volume distribution width (RDW) [2, 3]: 14.18 ± 0.75
Red blood count (RBC) [2, 3]: 6.33 ± 1.36
White blood cell count (WBC) [2, 3]: 352.8 ± 45.95
Hematocrit (HCT) [2, 4]: 32.4 ± 12.48
Hemoglobin (HGB) [2, 4]: 123 ± 40.8
Mean corpuscular hemoglobin (MCH) [2, 4]: 18.43 ± 1.93
Mean corpuscular hemoglobin concentration (MCHC) [2, 4]: 387.5 ± 40.38
Mean corpuscular volume (MCV) [2, 4]: 47.5 ± 1.95
Mean platelet volume (MPV) [2, 4]: 6.63 ± 0.76
Platelet count (PLT) [2, 4]: 267 ± 167.28
Platelet distribution width (PDW) [2, 4]: 15.13 ± 0.76
Plateletocrit (PCT) [2, 4]: 0.24 ± 0.12
Red blood cell volume distribution width (RDW) [2, 4]: 14.58 ± 0.84
Red blood count (RBC) [2, 4]: 6.81 ± 2.51
White blood cell count (WBC) [2, 4]: 136.8 ± 31.45
Hematocrit (HCT) [2, 5]: 32.64 ± 12.12
Hemoglobin (HGB) [2, 5]: 141.6 ± 42.72
Mean corpuscular hemoglobin (MCH) [2, 5]: 20.1 ± 1.84
Mean corpuscular hemoglobin concentration (MCHC) [2, 5]: 447 ± 48.54
Mean corpuscular volume (MCV) [2, 5]: 45.04 ± 1.21
Mean platelet volume (MPV) [2, 5]: 6.23 ± 0.61
Platelet count (PLT) [2, 5]: 494.4 ± 387.6
Platelet distribution width (PDW) [2, 5]: 13.37 ± 1.47
Plateletocrit (PCT) [2, 5]: 0.48 ± 0.24
Red blood cell volume distribution width (RDW) [2, 5]: 13.78 ± 0.59
Red blood count (RBC) [2, 5]: 7.22 ± 2.62
White blood cell count (WBC) [2, 5]: 193.5 ± 70
number of platelets and white blood cells in the blood ([2]; treated groups vs control groups (p<0.001), after 2 weeks of treatment): decreases
liver, kidney and blood toxicity ([2]; tumor-bearing mice, continuous treatment for 14 days at high or low concentration therapeutic doses): will not cause liver, kidney and blood toxicity
